Biological target: Human VPS34 (Homo sapiens (Human), UniProt Q8NEB9)
Test: Human VPS34 enzyme assay (Adapta TR-FRET)
Type: biochemical
Settings: compound concentration 1.11 μM; read-out: Percent Inhibition

Human VPS34, sequence (Q8NEB9 whole entry): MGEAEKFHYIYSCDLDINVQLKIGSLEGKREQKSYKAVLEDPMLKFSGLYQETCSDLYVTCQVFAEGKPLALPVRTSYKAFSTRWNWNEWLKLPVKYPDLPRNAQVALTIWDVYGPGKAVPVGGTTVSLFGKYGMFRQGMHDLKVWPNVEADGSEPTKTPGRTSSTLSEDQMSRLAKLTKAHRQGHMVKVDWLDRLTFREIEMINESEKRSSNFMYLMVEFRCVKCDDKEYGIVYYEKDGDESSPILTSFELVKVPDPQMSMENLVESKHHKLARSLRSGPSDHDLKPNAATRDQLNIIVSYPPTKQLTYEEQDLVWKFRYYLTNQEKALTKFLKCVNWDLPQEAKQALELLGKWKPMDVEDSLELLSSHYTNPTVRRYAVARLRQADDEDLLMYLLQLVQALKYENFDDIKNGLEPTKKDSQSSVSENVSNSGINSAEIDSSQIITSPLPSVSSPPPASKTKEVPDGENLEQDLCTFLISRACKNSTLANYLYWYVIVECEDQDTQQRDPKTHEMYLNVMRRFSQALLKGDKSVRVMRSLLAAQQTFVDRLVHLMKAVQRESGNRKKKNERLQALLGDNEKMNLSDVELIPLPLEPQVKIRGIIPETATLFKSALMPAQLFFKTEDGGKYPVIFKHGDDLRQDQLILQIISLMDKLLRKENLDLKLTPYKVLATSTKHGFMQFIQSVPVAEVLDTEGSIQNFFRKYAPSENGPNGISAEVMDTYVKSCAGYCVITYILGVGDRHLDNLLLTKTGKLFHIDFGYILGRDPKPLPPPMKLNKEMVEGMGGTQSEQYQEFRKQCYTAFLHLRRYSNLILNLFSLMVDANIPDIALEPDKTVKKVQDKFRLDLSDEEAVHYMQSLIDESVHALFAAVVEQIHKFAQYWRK

inhibition at 1.11 µM	SMILES
100%	CC(=O)Nc1cc(-c2cncc(N(C)C(=O)c3ccc(F)cc3F)c2)ccn1 [Compound I-397, N-(2′-acetamido-3,4′-bipyridin-5-yl)-2,4-difluoro-N-methylbenzamide]
93%	CC(=O)Nc1cc(-c2cnc(C)c(N(C)C(=O)c3ccc(F)cc3F)c2)ccn1 [Compound I-398, N-(2′-acetamido-6-methyl-3,4′-bipyridin-5-yl)-2,4-difluoro-N-methylbenzamide]
100%	CC(=O)Nc1cc(-c2cnc(Cl)c(NS(=O)(=O)c3ccc(Cl)cc3F)c2C)ccn1 [Compound I-399, N-(6-chloro-5-{[(4-chloro-2-fluorophenyl)sulfonyl]amino}-4-methyl-3,4′-bipyridin-2′-yl)acetamide]
> 99%	CC(=O)Nc1cc(-c2cnc(Cl)c(NS(=O)(=O)c3cc(Cl)ccc3Cl)c2C)ccn1 [Compound I-401, N-(6-chloro-5-{[(2,5-dichlorophenyl)sulfonyl]amino}-4-methyl-3,4′-bipyridin-2′-yl)acetamide]
93%	Cc1nccc(Nc2cc(-c3cnc(Cl)c(C(=O)O)c3C)ccn2)n1 [Compound I-402, 6-chloro-4-methyl-2′-[(2-methylpyrimidin-4-yl)amino]-3,4′-bipyridine-5-carboxylic acid]
92%	CC(=O)Nc1cc(-c2cnc(Cl)c(S(=O)(=O)N[C@@H](CO)c3ccccc3)c2)ccn1 [Compound I-403, N-(6-chloro-5-{[(1R)-2-hydroxy-1-phenylethyl]sulfamoyl}-3,4′-bipyridin-2′-yl)acetamide]
94%	CC(=O)Nc1cc(-c2cc(NS(=O)(=O)c3ccc(F)cc3F)c3ccnn3c2)ccn1 [Compound I-404, N-[4-(4-{[(2,4-difluorophenyl)sulfonyl]amino}pyrazolo[1,5-a]pyridin-6-yl)pyridin-2-yl]acetamide]
> 99%	CC(=O)Nc1cc(-c2cncc(N3CCOc4cc(F)ccc4S3(=O)=O)c2)ccn1 [Compound I-405]
80%	Cc1nccc(Nc2cc(-c3cnc4c(c3)C(=O)NCC4)ccn2)n1 [Compound I-406, 3-[2-[(2-methylpyrimidin-4-yl)amino]-4-pyridyl]-7,8-dihydro-6H-1,6-naphthyridin-5-one]
98%	Cc1nccc(Nc2cc(-c3cc(NC(=O)N4CC(F)(F)C4)c4ccnn4c3)ccn2)n1 [Compound I-407, 3,3-difluoro-N-(6-{2-[(2-methylpyrimidin-4-yl)amino]pyridin-4-yl}pyrazolo[1,5-a]pyridin-4-yl)azetidine-1-carboxamide]
> 99%	Cc1nccc(Nc2cc(-c3cncc(C(=O)N4CC(F)(F)C4)c3)ccn2)n1 [Compound I-408, (3,3-difluoroazetidin-1-yl){2′-[(2-methylpyrimidin-4-yl)amino]-3,4′-bipyridin-5-yl}methanone]
82%	CC(=O)Nc1cc(-c2cnc(N)c(C(=O)NC(=N)N)c2)ccn1 [Compound I-409, 2′-acetamido-6-amino-N-carbamimidoyl-3,4′-bipyridine-5-carboxamide]
96%	CC(=O)Nc1cc(-c2cnc(Cl)c(S(=O)(=O)NC(C)(C)C)c2C)ccn1 [Compound I-410, N-[5-(tert-butylsulfamoyl)-6-chloro-4-methyl-3,4′-bipyridin-2′-yl]acetamide]
88%	CC(=O)Nc1cc(-c2cnc(C#N)c(NS(=O)(=O)c3ccc(F)cc3F)c2)ccn1 [Compound I-411, N-(6-cyano-5-{[(2,4-difluorophenyl)sulfonyl]amino}-3,4′-bipyridin-2′-yl)acetamide]
97%	CC(=O)Nc1cc(-c2cnc(C)c(NS(=O)(=O)CC(F)F)c2)ccn1 [Compound I-412, N-(5-{[(2,2-difluoroethyl)sulfonyl]amino}-6-methyl-3,4′-bipyridin-2′-yl)acetamide]
> 99%	O=C(c1cncc(-c2ccnc(Nc3ccnc(C4CC4)n3)c2)c1)N1CC(F)(F)C1 [Compound I-413]
89%	CC(=O)Nc1cc(-c2cnc(C)c(NS(=O)(=O)c3ccc(F)cc3F)c2)cc(C)n1 [Compound I-414, N-(5-{[(2,4-difluorophenyl)sulfonyl]amino}-6,6′-dimethyl-3,4′-bipyridin-2′-yl)acetamide]
82%	Cc1nccc(Nc2cc(-c3cnc(C)c(C(=O)N4CC5(COC5)C4)c3)ccn2)n1 [Compound I-415, {6-methyl-2′-[(2-methylpyrimidin-4-yl)amino]-3,4′-bipyridin-5-yl}(2-oxa-6-azaspiro[3.3]hept-6-yl)methanone]
> 99%	CC(=O)Nc1cc(-c2cnc(C)c(N3CC=CS3(=O)=O)c2)ccn1 [Compound I-416, N-[5-(1,1-dioxidoisothiazol-2(3H)-yl)-6-methyl-3,4′-bipyridin-2′-yl]acetamide]
> 99%	COC(=O)Nc1cc(-c2cnc(C)c(NS(=O)(=O)c3ccc(Cl)cc3F)c2)ccn1 [Compound I-417, methyl (5-{[(4-chloro-2-fluorophenyl)sulfonyl]amino}-6-methyl-3,4′-bipyridin-2′-yl)carbamate]

inhibition at 1.11 µM	SMILES
> 99%	CC(=O)Nc1cc(-c2cnc(C)c(S(=O)(=O)NC34CC(C3)C4)c2)ccn1 [Compound I-418, N-[5-(bicyclo[1.1.1]pent-1-ylsulfamoyl)-6-methyl-3,4′-bipyridin-2′-yl]acetamide]
56%	CC(=O)Nc1cc(-c2cncc(NC(=O)c3ccc(F)cc3F)c2)ccn1 [Compound I-419, N-(2′-acetamido-3,4′-bipyridin-5-yl)-2,4-difluorobenzamide]
59%	CC(=O)Nc1cc(-c2cnc3c(c2)S(=O)(=O)N[C@H](c2ccccc2)CO3)ccn1 [Compound I-420, (R)-N-(4-(1,1-dioxido-3-phenyl-3,4-dihydro-2H-pyrido[2,3-b][1,4,5]oxathiazepin-8-yl)pyridin-2-yl)acetamide]
96%	Cc1nccc(Nc2cc(-c3cncc(C(C)Oc4ccccc4F)c3)ccn2)n1 (stereo not shown) [Compound I-422, 5-[1-(2-fluorophenoxy)ethyl]-N-(2-methylpyrimidin-4-yl)-3,4′-bipyridin-2′-amine]
> 99%	COc1ncc(-c2ccnc(NC(C)=O)c2)cc1C(=O)N(C)c1ccc(F)cc1F [Compound I-423, 2′-acetamido-N-(2,4-difluorophenyl)-6-methoxy-N-methyl-3,4′-bipyridine-5-carboxamide]
> 99%	Cc1nccc(Nc2cc(-c3cnc(C)c(OCCO)c3)ccn2)n1 [Compound I-424, 2-({6-methyl-2′-[(2-methylpyrimidin-4-yl)amino]-3,4′-bipyridin-5-yl}oxy)ethanol]
100%	CC(=O)Nc1cc(-c2cnc(Cl)c(N3CCCS3(=O)=O)c2C)ccn1 [Compound I-425, N-[6-chloro-5-(1,1-dioxidoisothiazolidin-2-yl)-4-methyl-3,4′-bipyridin-2′-yl]acetamide]
> 99%	COc1ncc(-c2ccnc(NC(C)=O)c2)cc1S(=O)(=O)NC1CCC1 [Compound I-426, N-[5-(cyclobutylsulfamoyl)-6-methoxy-3,4′-bipyridin-2′-yl]acetamide]
> 99%	CN(C)S(=O)(=O)Nc1cc(-c2ccnc(Nc3ccnc(C4CC4)n3)c2)cn2nccc12 [Compound I-427, N′-(6-{2-[(2-cyclopropylpyrimidin-4-yl)amino]pyridin-4-yl}pyrazolo[1,5-a]pyridin-4yl)-N,N-dimethylsulfuric diamide]
> 99%	CC(=O)Nc1cc(-c2cc(OS(=O)(=O)N(C)C)c3ccnn3c2)ccn1 [Compound I-428, 6-(2-acetamidopyridin-4-yl)pyrazolo[1,5-a]pyridin-4-yl dimethylsulfamate]
96%	CC(=O)Nc1cc(-c2cnc(Cl)c(NS(=O)(=O)c3ccc(C#N)cc3)c2C)ccn1 [Compound I-429, N-(6-chloro-5-{[(4-cyanophenyl)sulfonyl]amino}-4-methyl-3,4′-bipyridin-2′-yl)acetamide]
92%	Cc1cnc(NC(=O)C2CC2)cc1-c1cnc(Cl)c(NS(=O)(=O)c2ccc(F)cc2F)c1C [Compound I-430, N-(6-chloro-5-{[(2,4-difluorophenyl)sulfonyl]amino}-4,5′-dimethyl-3,4′-bipyridin-2′-yl)cyclopropanecarboxamide]
74%	CC(=O)Nc1cc(-c2cnc(C)c(C(=O)Nc3ccc(F)cc3F)c2)ccn1 [Compound I-431, 2′-acetamido-N-(2,4-difluorophenyl)-6-methyl-3,4′-bipyridine-5-carboxamide]
98%	COc1ncc(-c2ccnc(NC(C)=O)c2)cc1S(=O)(=O)Nc1cc(Cl)ccc1Cl [Compound I-432, N-{5-[(2,5-dichlorophenyl)sulfamoyl]-6-methoxy-3,4′-bipyridin-2′-yl}acetamide]
93%	Cc1ncc(-c2ccnc(NC(=O)C3CC3)c2)cc1NS(=O)(=O)c1ccc(Cl)cc1F [Compound I-433, N-(5-{[(4-chloro-2-fluorophenyl)sulfonyl]amino}-6-methyl-3,4′-bipyridin-2′-yl)cyclopropanecarboxamide]
36%	CC(=O)Nc1cc(-c2cnc(Cl)c(C(=O)N3CCC3)c2)c(C)cn1 [Compound I-434]
96%	Cc1c(-c2ccnc(Nc3ccnc(C4CC4)n3)c2)cnc(Cl)c1NS(=O)(=O)N(C)C [Compound I-435, N′-{6-chloro-2′-[(2-cyclopropylpyrimidin-4-yl)amino]-4-methyl-3,4′-bipyridin-5-yl}-N,N-dimethylsulfuric diamide]
89%	CNc1ncc(-c2ccnc(NC(C)=O)c2)c(C)c1S(=O)(=O)NC(C)(C)C [Compound I-436, N-[5-(tert-butylsulfamoyl)-4-methyl-6-(methylamino)-3,4′-bipyridin-2′-yl]acetamide]
> 99%	CC(=O)Nc1cc(-c2cnc(Cl)c(NS(=O)(=O)c3cccc4ncccc34)c2C)ccn1 [Compound I-437, N-{6-chloro-4-methyl-5-[(quinolin-5-ylsulfonyl)amino]-3,4′-bipyridin-2′-yl}acetamide]
> 99%	CC(=O)Nc1cc(-c2cnc(Cl)c(S(=O)(=O)NC3CCC3)c2)ccn1 [Compound I-438, N-[6-chloro-5-(cyclobutylsulfamoyl)-3,4′-bipyridin-2′-yl]acetamide]
